Measurements: PubChem BioAssay (NCI)
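1) Cells in 96-well plates. 2) Compound, 48 h, 5 concentrations. 3) Linear interpolation between surrounding doses. 4) Unreached endpoint = highest concentration. TGI: total growth inhibition.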

What was measured:
Assay in all cases: growth of human tumour cells (NCI), 48 h
UACC-257 melanoma = system: UACC-257 melanoma
UACC-62 melanoma = system: UACC-62 melanoma
HCC-2998 colon = system: HCC-2998 colon
SNB-75 CNS = system: SNB-75 CNS
SF-268 CNS = system: SF-268 CNS
MOLT-4 leukemia = system: MOLT-4 leukemia
NCI-H226 lung = system: NCI-H226 lung
MDA-MB-435 = system: MDA-MB-435
T-47D breast = system: T-47D breast
MDA-MB-231 breast = system: MDA-MB-231 breast
HOP-92 NSCLC = system: HOP-92 NSCLC
HCT-15 colon = system: HCT-15 colon
U251 CNS = system: U251 CNS
MDA-N = system: MDA-N
HCT-116 colon = system: HCT-116 colon
PC-3 prostate = system: PC-3 prostate
786-0 renal = system: 786-0 renal
ACHN renal = system: ACHN renal
A498 renal = system: A498 renal

Compound | TGI (UACC-257 melanoma) [µM] | TGI (UACC-62 melanoma) [µM] | TGI (HCC-2998 colon) [µM] | TGI (SNB-75 CNS) [µM] | TGI (SF-268 CNS) [µM] | TGI (MOLT-4 leukemia) [µM] | TGI (NCI-H226 lung) [µM] | TGI (MDA-MB-435) [µM] | TGI (T-47D breast) [µM] | TGI (MDA-MB-231 breast) [µM] | TGI (HOP-92 NSCLC) [µM] | TGI (HCT-15 colon) [µM] | TGI (U251 CNS) [µM] | TGI (MDA-N) [µM] | TGI (HCT-116 colon) [µM] | TGI (PC-3 prostate) [µM] | TGI (786-0 renal) [µM] | TGI (ACHN renal) [µM] | TGI (A498 renal) [µM]
NCCCc1nonc1C(=O)O | > 100 | > 100 | > 100 | > 100 | > 100 | > 100 | > 100 | > 100 | > 100 | > 100 | > 100 | > 100 | > 100 | > 100 | > 100 | > 100 | > 100 | > 100 | –
CCO/C=N\C1=C(C#N)SC2=N/C(=C\c3ccco3)C(=O)N21 | > 100 | – | > 100 | > 100 | > 100 | > 100 | > 100 | > 100 | > 100 | > 100 | > 100 | > 100 | > 100 | > 100 | > 100 | > 100 | > 100 | > 100 | > 100
Cc1c(S(=O)(=O)/N=C(\NO)Nc2ccc(Cl)cc2)sc2ccc(Cl)cc12 | 33.3 | 29.8 | – | 41.9 | 35.6 | > 100 | 38.1 | 33.7 | 89.9 | 42.7 | 28.8 | 30.6 | 31.5 | 32.9 | 27.4 | 31.1 | 32.3 | 28.5 | –
COc1cc(N(CCC#N)CCC#N)ccc1/C(N=Nc1cccc([N+](=O)[O-])c1)=N\NC(=O)c1ccc(C)cc1 | 60.9 | > 100 | > 100 | – | > 100 | > 100 | > 100 | > 100 | > 100 | > 100 | > 100 | > 100 | > 100 | > 100 | > 100 | > 100 | > 100 | > 100 | > 100
Cc1cccc2c(=O)c3cccc(CC(=O)O)c3oc12 | > 100 | > 100 | > 100 | – | > 100 | > 100 | > 100 | > 100 | > 100 | > 100 | > 100 | > 100 | > 100 | > 100 | > 100 | > 100 | > 100 | > 100 | > 100
CCOC(=O)c1c2ccccc2n2c(=O)n(-c3ccccc3)nnc12 | > 100 | > 100 | > 100 | 89.5 | > 100 | – | > 100 | > 100 | 71.5 | > 100 | > 100 | > 100 | > 100 | > 100 | > 100 | > 100 | > 100 | > 100 | > 100
